Data reported in ChEMBL document CHEMBL4622883, “Bisbenzylisoquinoline alkaloids and P-glycoprotein function: A structure activity relationship study” (Bioorg Med Chem, 2020).

Tests used:
Assay type in all cases: cell-based; call rule not given here
[1] = target: T1, ATP-dependent translocase ABCB1 (Homo sapiens, UniProt P08183); assay: Inhibition of P-glycoprotein-mediated Rhodamine-123 efflux in human MOLT4/DNR cells assessed as inhibition of P-glycoprotein efflux function at 10 uM incubated for 1 hr by flow cytometry
T1 sequence (P08183 whole entry): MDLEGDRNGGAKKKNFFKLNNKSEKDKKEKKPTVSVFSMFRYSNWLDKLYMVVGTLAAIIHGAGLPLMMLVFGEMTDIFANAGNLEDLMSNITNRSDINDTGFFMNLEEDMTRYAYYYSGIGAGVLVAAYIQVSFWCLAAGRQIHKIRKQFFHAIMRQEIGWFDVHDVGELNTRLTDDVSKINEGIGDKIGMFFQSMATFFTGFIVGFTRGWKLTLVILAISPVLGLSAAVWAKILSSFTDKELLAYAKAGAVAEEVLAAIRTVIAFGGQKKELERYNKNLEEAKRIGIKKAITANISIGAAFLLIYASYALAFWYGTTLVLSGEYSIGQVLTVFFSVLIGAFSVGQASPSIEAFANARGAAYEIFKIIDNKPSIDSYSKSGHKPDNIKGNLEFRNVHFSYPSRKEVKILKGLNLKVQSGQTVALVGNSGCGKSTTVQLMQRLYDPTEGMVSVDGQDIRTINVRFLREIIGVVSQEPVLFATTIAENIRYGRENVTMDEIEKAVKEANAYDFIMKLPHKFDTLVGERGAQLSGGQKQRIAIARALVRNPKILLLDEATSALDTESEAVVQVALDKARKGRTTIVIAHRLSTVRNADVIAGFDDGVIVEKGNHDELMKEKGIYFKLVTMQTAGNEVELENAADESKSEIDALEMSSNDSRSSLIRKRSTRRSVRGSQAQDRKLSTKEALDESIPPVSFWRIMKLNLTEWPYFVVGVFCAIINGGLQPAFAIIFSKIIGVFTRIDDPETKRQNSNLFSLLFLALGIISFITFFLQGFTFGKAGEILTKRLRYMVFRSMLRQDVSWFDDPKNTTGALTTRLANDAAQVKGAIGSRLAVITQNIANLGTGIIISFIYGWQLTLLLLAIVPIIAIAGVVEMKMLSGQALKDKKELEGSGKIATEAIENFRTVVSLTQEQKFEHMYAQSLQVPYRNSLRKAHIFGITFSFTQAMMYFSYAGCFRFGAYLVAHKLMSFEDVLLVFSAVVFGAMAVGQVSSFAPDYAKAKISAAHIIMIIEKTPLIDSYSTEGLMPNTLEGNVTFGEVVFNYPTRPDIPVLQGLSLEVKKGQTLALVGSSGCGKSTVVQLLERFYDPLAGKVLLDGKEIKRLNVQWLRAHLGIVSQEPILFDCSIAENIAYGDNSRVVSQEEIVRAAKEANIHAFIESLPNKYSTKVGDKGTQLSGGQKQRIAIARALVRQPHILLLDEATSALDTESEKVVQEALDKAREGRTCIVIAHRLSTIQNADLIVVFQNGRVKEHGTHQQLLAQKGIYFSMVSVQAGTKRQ

[2] = target: T1, ATP-dependent translocase ABCB1; assay: Inhibition of P-glycoprotein-mediated Rhodamine-123 efflux in human MOLT4/DNR cells assessed as inhibition of P-glycoprotein efflux function at 0.3 uM incubated for 1 hr by flow cytometry
[3] = target: T1, ATP-dependent translocase ABCB1; assay: Inhibition of P-glycoprotein-mediated Rhodamine-123 efflux in human MOLT4/DNR cells assessed as inhibition of P-glycoprotein efflux function at 1 uM incubated for 1 hr by flow cytometry
[4] = target: T1, ATP-dependent translocase ABCB1; assay: Inhibition of P-glycoprotein-mediated Rhodamine-123 efflux in human MOLT4/DNR cells assessed as Rhodamine-123 accumulation incubated for 1 hr by flow cytometry

With `COc1cc2c(cc1OC)[C@@H](Cc1ccc(O)cc1)N(C)CC2` as the compound, how does the “inhibition (INH)” value [1] read?
Its value is “Active”.

Which results are given for `COc1ccc2cc1Oc1ccc(cc1)C[C@H]1c3cc(c(OC)cc3CCN1C)Oc1c(OC)c(OC)cc3c1[C@@H](C2)N(C)CC3`?
inhibition (INH) [2]: Not Active; inhibition (INH) [1]: Active; inhibition (INH) [3]: Not Active

Which results are given for `COc1cc2c3cc1Oc1c(OC)c(OC)cc4c1[C@@H](Cc1ccc(O)c(c1)Oc1ccc(cc1)C[C@@H]3N(C)CC2)N(C)CC4` [BERBAMINE]?
inhibition (INH) [2]: Not Active; inhibition (INH) [1]: Active; inhibition (INH) [3]: Not Active

With `COc1ccc2cc1Oc1ccc(cc1)C[C@H]1c3c(cc4c(c3Oc3cc5c(cc3OC)CCN(C)[C@@H]5C2)OCO4)CCN1C` [CEPHARANTHINE] as the compound, how does the “inhibition (INH)” value [1] read?
The value was “Active”.

And the “inhibition (INH)” value [3]?
The value was “Not Active”.

`COc1cc2c(cc1OC)[C@@H](Cc1ccc(Oc3cc(C[C@@H]4c5cc(OC)c(OC)cc5CCN4C)ccc3O)cc1)N(C)CC2` [DAURICINE] was tested. Which “inhibition (INH)” value [1] did it give?
The value was “Active”.

Which results are given for `COc1ccc2cc1Oc1ccc(cc1)C[C@H]1c3cc(c(OC)cc3CCN1C)Oc1c(OC)c(OC)cc3c1[C@H](C2)N(C)CC3` [FANCHININ]?
inhibition (INH) [2]: Active; inhibition (INH) [1]: Active; inhibition (INH) [3]: Active; inhibition (INH) [4]: Dose-dependent effect

Which “inhibition (INH)” value [1] does the source give for `COc1ccc2cc1Oc1ccc(cc1)C[C@H]1c3cc(c(OC)cc3CCN1C)Oc1c(O)c(OC)cc3c1[C@H](C2)N(C)CC3` [FANGCHINOLINE] here?
Its value is “Active”.

And the “inhibition (INH)” value [3]?
The value was “Not Active”.
